This passage reports IC50 results from ChEMBL document CHEMBL5356965, “Discovery and biological evaluation of novel dual PTP1B and ACP1 inhibitors for the treatment of insulin resistance” (Bioorg Med Chem, 2024).

Experiment [1] addresses T1, Low molecular weight phosphotyrosine protein phosphatase (Homo sapiens, UniProt P24666).
T1 sequence (P24666 whole entry): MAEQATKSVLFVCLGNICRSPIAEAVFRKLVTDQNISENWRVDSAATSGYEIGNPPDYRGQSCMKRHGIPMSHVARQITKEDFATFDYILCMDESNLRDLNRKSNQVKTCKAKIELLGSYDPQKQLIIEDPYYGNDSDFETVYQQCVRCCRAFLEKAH
The experiment is described as follows: Inhibition of recombinant human ACP1 using pNPP as substrate preincubated with compound for 10 mins followed by substrate addition and measured by absorbance based assay.

In experiment [2] the target is T2, Tyrosine-protein phosphatase non-receptor type 1 (Homo sapiens, UniProt P18031).
T2 sequence (P18031 whole entry): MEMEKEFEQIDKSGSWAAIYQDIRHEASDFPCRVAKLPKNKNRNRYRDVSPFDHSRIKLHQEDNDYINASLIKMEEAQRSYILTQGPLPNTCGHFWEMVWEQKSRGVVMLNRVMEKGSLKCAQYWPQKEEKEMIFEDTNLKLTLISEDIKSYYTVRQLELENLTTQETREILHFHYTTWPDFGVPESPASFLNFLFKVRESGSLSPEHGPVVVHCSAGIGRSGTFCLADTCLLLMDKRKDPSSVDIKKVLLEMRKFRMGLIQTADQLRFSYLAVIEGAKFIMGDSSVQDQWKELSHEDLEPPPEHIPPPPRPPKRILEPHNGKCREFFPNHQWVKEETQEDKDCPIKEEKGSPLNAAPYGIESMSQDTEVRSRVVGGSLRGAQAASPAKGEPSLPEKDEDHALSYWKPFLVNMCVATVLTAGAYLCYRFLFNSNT
Nature of the experiment: Inhibition of recombinant human PTP1B using pNPP as substrate preincubated with compound for 10 mins followed by substrate addition and measured by absorbance based assay.

The target in experiment [3] is T3, Tyrosine-protein phosphatase non-receptor type 2 (Homo sapiens, UniProt P17706).
T3 sequence (P17706 whole entry): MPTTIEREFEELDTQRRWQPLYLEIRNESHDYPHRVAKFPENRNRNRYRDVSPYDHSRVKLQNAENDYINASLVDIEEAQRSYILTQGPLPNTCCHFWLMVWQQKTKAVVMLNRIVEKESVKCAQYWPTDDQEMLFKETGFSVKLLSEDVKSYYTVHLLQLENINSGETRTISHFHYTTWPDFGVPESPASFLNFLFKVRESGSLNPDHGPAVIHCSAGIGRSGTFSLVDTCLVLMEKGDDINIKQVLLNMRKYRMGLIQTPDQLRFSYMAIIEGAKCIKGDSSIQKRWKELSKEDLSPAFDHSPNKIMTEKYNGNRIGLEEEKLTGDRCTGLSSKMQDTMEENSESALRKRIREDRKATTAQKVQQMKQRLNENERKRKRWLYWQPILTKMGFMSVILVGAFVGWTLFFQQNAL
Description: Inhibition of recombinant human TCPTP

Experiment [4] deals with T4, Receptor-type tyrosine-protein phosphatase C (Homo sapiens, UniProt P08575).
T4 sequence (P08575 whole entry): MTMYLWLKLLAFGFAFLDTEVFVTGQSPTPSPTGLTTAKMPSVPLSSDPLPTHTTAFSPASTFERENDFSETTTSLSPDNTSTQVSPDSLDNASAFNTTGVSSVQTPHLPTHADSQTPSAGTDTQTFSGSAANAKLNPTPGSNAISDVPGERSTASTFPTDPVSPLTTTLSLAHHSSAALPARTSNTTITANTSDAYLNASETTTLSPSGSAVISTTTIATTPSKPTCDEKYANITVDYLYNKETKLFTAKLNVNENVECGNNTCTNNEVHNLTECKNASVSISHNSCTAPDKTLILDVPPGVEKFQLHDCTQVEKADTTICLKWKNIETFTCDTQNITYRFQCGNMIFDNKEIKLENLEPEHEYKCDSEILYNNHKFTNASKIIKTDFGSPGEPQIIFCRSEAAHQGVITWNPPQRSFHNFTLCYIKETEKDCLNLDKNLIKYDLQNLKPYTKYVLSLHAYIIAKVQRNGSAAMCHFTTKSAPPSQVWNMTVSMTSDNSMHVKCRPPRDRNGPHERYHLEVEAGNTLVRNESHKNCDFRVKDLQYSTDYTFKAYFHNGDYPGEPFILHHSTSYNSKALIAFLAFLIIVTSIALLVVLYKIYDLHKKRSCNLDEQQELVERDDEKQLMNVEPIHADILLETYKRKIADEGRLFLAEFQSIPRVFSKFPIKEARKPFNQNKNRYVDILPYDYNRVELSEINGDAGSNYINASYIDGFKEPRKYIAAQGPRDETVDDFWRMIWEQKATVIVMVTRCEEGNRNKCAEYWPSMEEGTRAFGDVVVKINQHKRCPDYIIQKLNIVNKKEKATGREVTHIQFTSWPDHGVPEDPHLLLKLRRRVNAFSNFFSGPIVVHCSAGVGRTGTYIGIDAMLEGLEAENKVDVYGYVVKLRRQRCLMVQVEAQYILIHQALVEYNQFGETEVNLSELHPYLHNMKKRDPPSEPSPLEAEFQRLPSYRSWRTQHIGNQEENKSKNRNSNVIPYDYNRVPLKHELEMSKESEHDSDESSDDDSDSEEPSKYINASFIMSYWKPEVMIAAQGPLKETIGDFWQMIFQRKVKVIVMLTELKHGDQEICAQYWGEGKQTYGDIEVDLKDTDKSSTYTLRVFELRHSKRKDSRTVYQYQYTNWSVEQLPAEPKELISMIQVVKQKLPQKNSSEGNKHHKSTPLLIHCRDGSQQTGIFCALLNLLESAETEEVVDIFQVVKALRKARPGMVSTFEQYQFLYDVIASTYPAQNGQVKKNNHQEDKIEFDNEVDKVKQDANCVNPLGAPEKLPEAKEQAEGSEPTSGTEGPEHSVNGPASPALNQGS
Description: Inhibition of recombinant human CD45

The structures appear in SMILES notation. Where only a bound is given, the exact number is not on record here.

The term IC50 denotes the concentration that gives 50% inhibition. For the compound `COc1cc(/C=C2/NC(=O)N(Cc3ccccc3)C2=O)cc(Cl)c1OCc1cccc(C(=O)O)c1`, the IC50 in experiment [1] was 5.2 µM; in experiment [2], 8.2 µM; in experiment [3], 12.7 µM; in experiment [4] it was more than 40 µM.
In the case of `COc1cc(/C=C2/NC(=O)N(Cc3ccc(C)cc3)C2=O)ccc1OCc1cccc(C(=O)O)c1`, the values for the IC50 in experiment [3] and in experiment [4] were 8.3 µM and more than 40 µM, respectively.
